Reference: ChEMBL document CHEMBL1201862, “PubChem BioAssay data set” (2004)
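48-hour exposure; five concentrations; linearly interpolated endpoints. Here, GI50 denotes the concentration required for 50% inhibition of growth.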 Calls of active or inactive are those of the source. Cut-off read from the data, not from the text of the source: active = GI50 up to about 1.1 µM and inactive = higher.

Columns and labels:
Assay in all cases: NCI-60 cell line screen, 48 h
786-0 = system: 786-0
A498 = system: A498
ACHN = system: ACHN
BT-549 = system: BT-549
CAKI-1 = system: CAKI-1
CCRF-CEM = system: CCRF-CEM
COLO 205 = system: COLO 205
DU-145 = system: DU-145
EKVX = system: EKVX
HCC 2998 = system: HCC 2998
HCT-116 = system: HCT-116
HCT-15 = system: HCT-15
HL-60 = system: HL-60
HOP-62 = system: HOP-62
HOP-92 = system: HOP-92
HT-29 = system: HT-29
Hs-578T = system: Hs-578T
IGROV-1 = system: IGROV-1
K562 = system: K562
KM12 = system: KM12
LOX IMVI = system: LOX IMVI
MCF7 = system: MCF7
MDA-MB-231 = system: MDA-MB-231
MDA-MB-435 = system: MDA-MB-435
MOLT-4 = system: MOLT-4
Malme-3M = system: Malme-3M
NCI-H226 = system: NCI-H226
NCI-H23 = system: NCI-H23
NCI-H460 = system: NCI-H460
NCI-H522 = system: NCI-H522
OVCAR-3 = system: OVCAR-3
OVCAR-4 = system: OVCAR-4
OVCAR-5 = system: OVCAR-5
PC-3 = system: PC-3
RPMI-8226 = system: RPMI-8226
RXF 393 = system: RXF 393
SF-268 = system: SF-268
SF-295 = system: SF-295
SK-MEL-28 = system: SK-MEL-28
SK-MEL-2 = system: SK-MEL-2
SK-MEL-5 = system: SK-MEL-5
SK-OV-3 = system: SK-OV-3
SN12C = system: SN12C
SNB-19 = system: SNB-19
SR = system: SR
SW-620 = system: SW-620
TK-10 = system: TK-10
U-251 = system: U-251
UACC-257 = system: UACC-257
UACC-62 = system: UACC-62
UO-31 = system: UO-31

COc1ccc(Oc2nc3ccc(C(F)(F)F)cc3nc2-c2ccccc2)cc1
GI50 (786-0): > 100 µM (inactive)
GI50 (A498): > 100 µM (inactive)
GI50 (ACHN): > 100 µM (inactive)
GI50 (BT-549): 0.361 µM (active)
GI50 (CAKI-1): > 100 µM (inactive)
GI50 (CCRF-CEM): 98.9 µM (inactive)
GI50 (COLO 205): > 100 µM (inactive)
GI50 (DU-145): > 100 µM (inactive)
GI50 (EKVX): > 100 µM (inactive)
GI50 (HCC 2998): 25.3 µM (inactive)
GI50 (HCT-116): > 100 µM (inactive)
GI50 (HCT-15): > 100 µM
GI50 (HL-60): 42 µM (inactive)
GI50 (HOP-62): > 100 µM (inactive)
GI50 (HOP-92): 49.9 µM (inactive)
GI50 (HT-29): 54.3 µM (inactive)
GI50 (Hs-578T): > 100 µM (inactive)
GI50 (IGROV-1): > 100 µM (inactive)
GI50 (K562): 87.9 µM (inactive)
GI50 (KM12): > 100 µM (inactive)
GI50 (LOX IMVI): > 100 µM (inactive)
GI50 (MCF7): 65.5 µM (inactive)
GI50 (MDA-MB-231): > 100 µM (inactive)
GI50 (MDA-MB-435): > 100 µM (inactive)
GI50 (MOLT-4): 62.4 µM (inactive)
GI50 (Malme-3M): > 100 µM (inactive)
GI50 (NCI-H226): > 100 µM (inactive)
GI50 (NCI-H23): 1.13 µM (inactive)
GI50 (NCI-H460): > 100 µM (inactive)
GI50 (NCI-H522): > 100 µM (inactive)
GI50 (OVCAR-3): > 100 µM (inactive)
GI50 (OVCAR-4): > 100 µM (inactive)
GI50 (OVCAR-5): > 100 µM (inactive)
GI50 (PC-3): > 100 µM (inactive)
GI50 (RPMI-8226): 7.23 µM (inactive)
GI50 (RXF 393): 50.5 µM (inactive)
GI50 (SF-268): > 100 µM (inactive)
GI50 (SF-295): > 100 µM (inactive)
GI50 (SK-MEL-28): > 100 µM (inactive)
GI50 (SK-MEL-2): > 100 µM (inactive)
GI50 (SK-MEL-5): > 100 µM (inactive)
GI50 (SK-OV-3): > 100 µM (inactive)
GI50 (SN12C): > 100 µM (inactive)
GI50 (SNB-19): > 100 µM (inactive)
GI50 (SR): 13.1 µM (inactive)
GI50 (SW-620): > 100 µM (inactive)
GI50 (TK-10): > 100 µM (inactive)
GI50 (U-251): > 100 µM (inactive)
GI50 (UACC-257): > 100 µM (inactive)
GI50 (UACC-62): > 100 µM (inactive)
GI50 (UO-31): 1.57 µM (inactive)
